Reference: PubChem BioAssay AID1259407 (Chemical Carcinogenesis Research Information System (CCRIS), 2018)
The source made the active and inactive calls. No rule for the calls is given here.

Tested on: CCRIS mutagenicity, Ames/micronucleus/aberration tests
Assay: CCRIS mutagenicity studies
[1] = Test System: AMES SALMONELLA TYPHIMURIUM, Strain/Indicator: TA98, Metabolic Activation: HAMSTER, LIVER, S-9, AROCLOR 1254, Method: STANDARD PLATE
[2] = Test System: AMES SALMONELLA TYPHIMURIUM, Strain/Indicator: TA98, Metabolic Activation: NONE, Method: STANDARD PLATE
[3] = Test System: AMES SALMONELLA TYPHIMURIUM, Strain/Indicator: TA98, Metabolic Activation: RAT, LIVER, S-9, AROCLOR 1254, Method: STANDARD PLATE
[4] = Test System: AMES SALMONELLA TYPHIMURIUM, Strain/Indicator: TA100, Metabolic Activation: HAMSTER, LIVER, S-9, AROCLOR 1254, Method: STANDARD PLATE
[5] = Test System: AMES SALMONELLA TYPHIMURIUM, Strain/Indicator: TA100, Metabolic Activation: NONE, Method: STANDARD PLATE
[6] = Test System: AMES SALMONELLA TYPHIMURIUM, Strain/Indicator: TA100, Metabolic Activation: RAT, LIVER, S-9, AROCLOR 1254, Method: STANDARD PLATE
[7] = Test System: AMES SALMONELLA TYPHIMURIUM, Strain/Indicator: TA1535, Metabolic Activation: HAMSTER, LIVER, S-9, AROCLOR 1254, Method: STANDARD PLATE
[8] = Test System: AMES SALMONELLA TYPHIMURIUM, Strain/Indicator: TA1535, Metabolic Activation: NONE, Method: STANDARD PLATE
[9] = Test System: AMES SALMONELLA TYPHIMURIUM, Strain/Indicator: TA1535, Metabolic Activation: RAT, LIVER, S-9, AROCLOR 1254, Method: STANDARD PLATE
[10] = Test System: AMES SALMONELLA TYPHIMURIUM, Strain/Indicator: TA1537, Metabolic Activation: HAMSTER, LIVER, S-9, AROCLOR 1254, Method: STANDARD PLATE
[11] = Test System: AMES SALMONELLA TYPHIMURIUM, Strain/Indicator: TA1537, Metabolic Activation: NONE, Method: STANDARD PLATE
[12] = Test System: AMES SALMONELLA TYPHIMURIUM, Strain/Indicator: TA1537, Metabolic Activation: RAT, LIVER, S-9, AROCLOR 1254, Method: STANDARD PLATE
[13] = Test System: Mouse lymphoma, Strain/Indicator: L5178Y (tk+/tk-), Metabolic Activation: Rat, Liver, S-9, Aroclor 1254, Method: Suspension/plate
[14] = Test System: AMES SALMONELLA TYPHIMURIUM, Strain/Indicator: TA100, Metabolic Activation: NONE, Method: PREINCUBATION

| Compound | mutagenic call [1] | mutagenic call [2] | mutagenic call [3] | mutagenic call [4] | mutagenic call [5] | mutagenic call [6] | mutagenic call [7] | mutagenic call [8] | mutagenic call [9] | mutagenic call [10] | mutagenic call [11] | mutagenic call [12] | mutagenic call [13] | mutagenic call [14] | further results |
| --- | --- | --- | --- | --- | --- | --- | --- | --- | --- | --- | --- | --- | --- | --- | --- |
| CC1(C)C(=O)[C@]2(C)CC[C@H]1C2 | inactive; negative | inactive; negative | inactive; negative | inactive; negative | inactive; negative | inactive; negative | inactive; negative | inactive; negative | inactive; negative | inactive; negative | inactive; negative | inactive; negative | active; positive | – | mutagenic call (Test System: AMES SALMONELLA TYPHIMURIUM, Strain/Indicator: TA102, Metabolic Activation: HAMSTER, LIVER, S-9, AROCLOR 1254, Method: STANDARD PLATE): inactive; negative; mutagenic call (Test System: AMES SALMONELLA TYPHIMURIUM, Strain/Indicator: TA102, Metabolic Activation: NONE, Method: STANDARD PLATE): inactive; negative; mutagenic call (Test System: AMES SALMONELLA TYPHIMURIUM, Strain/Indicator: TA102, Metabolic Activation: RAT, LIVER, S-9, AROCLOR 1254, Method: STANDARD PLATE): inactive; negative; mutagenic call (Test System: Mouse lymphoma, Strain/Indicator: L5178Y (tk+/tk-), Metabolic Activation: None, Method: Suspension/plate): inactive; negative |
| O=[N+]([O-])c1nc2ccccc2[nH]1 | – | active; positive | – | – | – | – | – | – | – | – | – | – | – | – | – |
| Cc1cccc(C)c1NO | – | – | – | – | – | – | – | – | – | – | – | – | – | active; positive | mutagenic call (Test System: AMES SALMONELLA TYPHIMURIUM, Strain/Indicator: TA100, Metabolic Activation: RAT, LIVER, S-9, PCB, Method: PREINCUBATION): active; positive |
| CC(CCl)OC(C)CCl (stereo unspecified) | – | – | – | – | – | – | – | – | – | – | – | – | – | – | mutagenic call (End Point: IN VITRO CHROMOSOMAL ABERRATIONS, Test System: CHINESE HAMSTER OVARY CELLS, Metabolic Activation: NONE): inactive; negative; precipitation occurred at all doses; mutagenic call (End Point: IN VITRO CHROMOSOMAL ABERRATIONS, Test System: CHINESE HAMSTER OVARY CELLS, Metabolic Activation: RAT, LIVER, S-9, AROCLOR 1254): active; positive; precipitation occurred at 497, 730 and 993 ug/ml |
| O=C(O)/C=C/c1ccccc1 | inactive; negative | inactive; negative | inactive; negative | inactive; negative | inactive; negative | inactive; negative | inactive; negative | inactive; negative | inactive; negative | inactive; negative | inactive; negative | inactive; negative | inactive; negative | inactive; negative | mutagenic call (Test System: AMES SALMONELLA TYPHIMURIUM, Strain/Indicator: TA98, Metabolic Activation: HAMSTER, LIVER, S-9, AROCLOR 1254 (2.5-20%), Method: PREINCUBATION): inactive; negative; mutagenic call (Test System: AMES SALMONELLA TYPHIMURIUM, Strain/Indicator: TA100, Metabolic Activation: HAMSTER, LIVER, S-9, AROCLOR 1254 (2.5-20%), Method: PREINCUBATION): inactive; negative; mutagenic call (Test System: AMES SALMONELLA TYPHIMURIUM, Strain/Indicator: TA100, Metabolic Activation: RAT, LIVER, S-9, AROCLOR 1254, Method: PREINCUBATION): inactive; negative; mutagenic call (Test System: AMES SALMONELLA TYPHIMURIUM, Strain/Indicator: TA102, Metabolic Activation: HAMSTER, LIVER, S-9, AROCLOR 1254, Method: PREINCUBATION): inactive; negative; mutagenic call (Test System: AMES SALMONELLA TYPHIMURIUM, Strain/Indicator: TA102, Metabolic Activation: NONE, Method: PREINCUBATION): inactive; negative; mutagenic call (Test System: AMES SALMONELLA TYPHIMURIUM, Strain/Indicator: TA102, Metabolic Activation: RAT, LIVER, S-9, AROCLOR 1254, Method: PREINCUBATION): inactive; negative; mutagenic call (Test System: AMES SALMONELLA TYPHIMURIUM, Strain/Indicator: TA1538, Metabolic Activation: HAMSTER, LIVER, S-9, AROCLOR 1254, Method: STANDARD PLATE): inactive; negative; mutagenic call (Test System: AMES SALMONELLA TYPHIMURIUM, Strain/Indicator: TA1538, Metabolic Activation: NONE, Method: STANDARD PLATE): inactive; negative; mutagenic call (Test System: AMES SALMONELLA TYPHIMURIUM, Strain/Indicator: TA1538, Metabolic Activation: RAT, LIVER, S-9, AROCLOR 1254, Method: STANDARD PLATE): inactive; negative; mutagenic call (Test System: MOUSE LYMPHOMA, Strain/Indicator: L5178Y (TK+/TK-), Metabolic Activation: NONE, Method: SUSPENSION/PLATE): active; positive. reevaluation of results: equivocal |
